According to ChEMBL document CHEMBL1201862, “PubChem BioAssay data set” (2004):
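Values below derive from 48-hour exposures of cells grown in 96-well plates, with endpoints linearly interpolated between the two concentrations bracketing the appropriate inhibition level. At the GI50, growth is halved.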 Active and inactive are the calls of the source. No stated cut-off is given here; in the data, active = GI50 up to about 1.1 µM and inactive = higher.

Columns and labels:
Test in all cases: NCI anticancer screen, dose series, 48 h
MDA-MB-231 = system: MDA-MB-231
Hs-578T = system: Hs-578T
UACC-62 = system: UACC-62
M14 = system: M14
MOLT-4 = system: MOLT-4
ACHN = system: ACHN
DU-145 = system: DU-145
SNB-19 = system: SNB-19
SR = system: SR
SW-620 = system: SW-620
SK-MEL-2 = system: SK-MEL-2
OVCAR-4 = system: OVCAR-4
UACC-257 = system: UACC-257
NCI/ADR-RES = system: NCI/ADR-RES
SF-295 = system: SF-295
786-0 = system: 786-0
SK-MEL-28 = system: SK-MEL-28
RPMI-8226 = system: RPMI-8226
SN12C = system: SN12C
MDA-N = system: MDA-N

SMILES	GI50 (MDA-MB-231)	GI50 (Hs-578T)	GI50 (UACC-62)	GI50 (M14)	GI50 (MOLT-4)	GI50 (ACHN)	GI50 (DU-145)	GI50 (SNB-19)	GI50 (SR)	GI50 (SW-620)	GI50 (SK-MEL-2)	GI50 (OVCAR-4)	GI50 (UACC-257)	GI50 (NCI/ADR-RES)	GI50 (SF-295)	GI50 (786-0)	GI50 (SK-MEL-28)	GI50 (RPMI-8226)	GI50 (SN12C)	GI50 (MDA-N)
CN1CCN(c2ccc3c(c2)NCC(=O)N3)CC1	> 100 µM (inactive)	> 100 µM (inactive)	> 100 µM (inactive)	> 100 µM (inactive)	> 100 µM (inactive)	> 100 µM (inactive)	> 100 µM (inactive)	> 100 µM (inactive)	> 100 µM (inactive)	> 100 µM (inactive)	> 100 µM (inactive)	> 100 µM (inactive)	> 100 µM (inactive)	> 100 µM (inactive)	> 100 µM (inactive)	> 100 µM (inactive)	> 100 µM (inactive)	> 100 µM (inactive)	–	–
CCOC(=O)Cn1nnc2cc(Nc3c(C)[n+]([O-])c4cc(F)c(OCC)cc4[n+]3[O-])ccc21	27.1 µM (inactive)	41.8 µM (inactive)	–	> 100 µM (inactive)	0.273 µM (active)	35.9 µM (inactive)	> 100 µM (inactive)	–	–	> 100 µM (inactive)	32.4 µM (inactive)	> 100 µM (inactive)	> 100 µM (inactive)	> 100 µM (inactive)	38.3 µM (inactive)	43.4 µM (inactive)	> 100 µM (inactive)	> 100 µM (inactive)	–	–
O=C(NCCCCCCCCNC(=O)c1cccc2ccccc12)c1cccc2ccccc12	–	–	21.2 µM (inactive)	34.4 µM (inactive)	> 100 µM (inactive)	17.1 µM (inactive)	> 100 µM (inactive)	20.1 µM (inactive)	> 100 µM (inactive)	> 100 µM (inactive)	37.2 µM (inactive)	4.01 µM (inactive)	> 93.1 µM (inactive)	28.3 µM (inactive)	12.4 µM (inactive)	4.89 µM (inactive)	> 59 µM (inactive)	> 100 µM (inactive)	18.8 µM (inactive)	> 100 µM (inactive)
C=C1C(=O)O[C@H]2C1C[C@H](O)[C@@]1(C)OC1CC[C@@]1(C)O[C@H]21 (some centres undefined)	–	37.3 µM (inactive)	14.6 µM (inactive)	15.5 µM (inactive)	10.1 µM (inactive)	18.1 µM (inactive)	34.5 µM (inactive)	–	17.8 µM (inactive)	13.6 µM (inactive)	26.5 µM (inactive)	13.6 µM (inactive)	18.1 µM (inactive)	20.9 µM (inactive)	> 100 µM (inactive)	21 µM (inactive)	19.4 µM (inactive)	6.65 µM (inactive)	17.4 µM (inactive)	–
N#C/C(=C\c1cc(F)cc(F)c1)c1ccccn1	–	–	45.1 µM (inactive)	25.8 µM (inactive)	13.7 µM (inactive)	30.6 µM (inactive)	36.9 µM (inactive)	45.6 µM (inactive)	24 µM (inactive)	> 10 µM (inactive)	22.9 µM (inactive)	45.8 µM (inactive)	32.1 µM (inactive)	23.6 µM (inactive)	16.3 µM (inactive)	> 10 µM (inactive)	47 µM (inactive)	14.9 µM (inactive)	24 µM (inactive)	19.7 µM (inactive)
CC(=O)OCC1OC(NC(=O)N(CCCl)N=O)C(OC(C)=O)C(OC(C)=O)C1OC(C)=O (centres undefined)	–	–	43.9 µM (inactive)	–	> 31.6 µM (inactive)	–	–	> 65.8 µM (inactive)	–	> 100 µM (inactive)	> 100 µM (inactive)	> 100 µM (inactive)	> 100 µM (inactive)	> 100 µM (inactive)	97.1 µM (inactive)	–	> 100 µM (inactive)	> 100 µM (inactive)	> 100 µM (inactive)	–
NS(=O)(=O)c1ccc(-n2c(-c3cccs3)nc3ccc(I)cc3c2=O)cc1	–	–	17.9 µM (inactive)	23.7 µM (inactive)	52.8 µM (inactive)	21.4 µM (inactive)	18.8 µM (inactive)	40.4 µM (inactive)	35 µM (inactive)	37.9 µM (inactive)	–	24.7 µM (inactive)	0.0522 µM (active)	29.1 µM (inactive)	25.4 µM (inactive)	28.7 µM (inactive)	17.3 µM (inactive)	–	30.3 µM (inactive)	33.3 µM (inactive)
COc1ccc(-c2oc3cc(OC(C)=O)cc(OC(C)=O)c3c(=O)c2OC)cc1	22 µM (inactive)	–	4.19 µM (inactive)	14.5 µM (inactive)	20.2 µM (inactive)	17 µM (inactive)	15.5 µM (inactive)	19 µM (inactive)	13.5 µM (inactive)	16.1 µM (inactive)	–	–	19.7 µM (inactive)	14.7 µM (inactive)	15.9 µM (inactive)	–	13.7 µM (inactive)	12.5 µM (inactive)	–	12.7 µM (inactive)
